{"source": "patent US6897218B2", "about": "“Nitric oxide donors based on metallic centers” (Consiglio Nazionale Delle Ricerche, priority 2001, dated 2005)", "key": {"[1]": {"test_system": "endothelial cells of the microcirculatory system", "assay": "endothelial cell migration, Boyden chambers", "type": "cell-based", "details": "compared with other NO donors", "description": "The pharmacological activity of the compounds of the invention has been evaluated by their relaxation induction effect in vascular preparations (rabbit aorta rings) precontracted with noradrenaline (Amerini et al., J. Cardiovasc. Pharmacol., 28: 82-88, […]). The endothelio-protective and pro-angiogenetic effects of the compounds have also been evaluated in a study on the proliferation and migration of endothelial cells of the microcirculatory system (M. Ziche et al., J. Clin. Invest. 94: 2036-2044, 1994).\nThe endothelio-protective and pro-angiogenetic effect of the compounds was also evaluated by measuring the growth promotion and migration effect on endothelial cells of the microcirculatory system compared with other NO donors. Cell migration was evaluated using Boyden chambers, and proliferation as the total number of cells after 48 hours of exposure to the substances under study (M. Ziche et al., J. Clin. Invest. 94: 2036-2044, 1994)."}, "[2]": {"test_system": "rabbit aorta precontracted with noradrenaline", "assay": "relaxation of rabbit aorta precontracted with noradrenaline"}}, "data": [{"smiles": "NCCCNCCCCN(CCCN)/[N+]([O-])=N/O", "note": "[SpermineNONOate, spermineNONOate]", "values": [{"measurement": "effect on endothelial cell migration, result in words", "setting": "[1]", "value": "little active and does not give the maximum effect"}, {"measurement": "vascular relaxation, result in words", "setting": "[2]", "value": "much less powerful than piperazineNONOate complexes"}]}]}
